pIC50: −log10 of the molar value. Calls of active or inactive are those of the source. The rule behind the calls is not given here.

Test [1] in a line: Inhibition of active recombinant full-length CaMK2 (unknown origin) using Autocamtide substrate and [gamma32P]ATP after 30 mins by scintillation counting method. The arrangement: species or system Homo sapiens.
The test system of test [2] is HepG2. The test is described as follows: Antioxidant activity in human HepG2 cells assessed as reduction in H2O2-induced oxidation by DCFH-DA assay. Type of test: functional, cell-based.
In test [3] the test system is Radical scavenging activity. Put plainly: Antioxidant activity assessed as DPPH radical scavenging activity at 0.1 mM. Type of test: functional.
For test [4], the system named is Radical scavenging activity. Put plainly: Antioxidant activity assessed as DPPH radical scavenging activity. Type of test: functional. As to conditions: dose or concentration not given here. For orientation: Loss of DPPH colour is used to gauge radical scavenging.
In test [5] the test system is HepG2. Put plainly: Cytoprotective activity in human HepG2 cells assessed as reduction in H2O2-induced cell death at 100 ug/mL incubated for 2 hrs by MTT assay. Type of test: functional. The arrangement: scale not given: the % may be the effect or the level left. In general terms: Formazan colour is commonly taken as a measure of viable cells.
Test [6] has as its system HepG2. The test is described as follows: Cytoprotective activity in human HepG2 cells assessed as reduction in H2O2-induced cell death at 10 to 100 ug/mL incubated for 2 hrs by MTT assay. It is filed as functional, cell-based.
Test [7] has as its system Radical scavenging activity. The test is described as follows: Antioxidant activity assessed as DPPH radical scavenging activity at 1 mM. Type of test: functional.
The subject of test [8] is Radical scavenging activity. Put plainly: Antioxidant activity assessed as DPPH radical scavenging activity at 5.5 mM. Type of test: functional.

`COc1cccc(O[C@@H](C)CNC(=O)C2CC2)c1`: the pIC50 (in general, the negative decadic logarithm of the IC50, by convention in mol/L) in test [1] is 3.93.

Turning to `COc1cccc(OC(C)CNC(C)=O)c1` (racemic), the pIC50 in test [2] was less than 3.00.

Take `O=C(O)c1cc(O)c(O)c(O)c1`: the inhibition (as a rule, how much of the control response was suppressed) in test [3] was 97.1%; in test [4] it was 6%.

For the compound `CC(=O)NC(C)COc1ccccc1` (racemic), the negative logarithm of the IC50 (pIC50) in test [2] is less than 3.00.

For the compound `CC(=O)NCCOc1ccccc1`, the pIC50 in test [2] was less than 3.00.

`CCCC(=O)NC[C@@H](C)Oc1cccc(OC)c1`: the Activity in test [5] is 100%. In test [6], the result was Active. The inhibition is 5.6% in test [3], 5.1% in test [7] and 20.7% in test [8]. Also, the pIC50 in test [1] is 3.89; in test [2], 3.74.

On to `COc1cccc(OC(C)CNC(=O)C2CC2)c1` (racemic), for which the figures for the negative logarithm of the IC50 (pIC50) in test [1] and in test [2] were 3.97 and less than 3.00, respectively.

On to `CCCC(=O)NCC(C)Oc1cccc(OC)c1` (racemic), for which the result in test [6] was Active. Moreover, the inhibition in test [3] was 3.22%; in test [7] it was 4.05%; in test [8], 11.7%. Moreover, the pIC50 in test [1] is 3.91; in test [2], 3.65.

Consider `COc1ccc2[nH]cc(CCNC(C)=O)c2c1` [MELATONIN], for which the inhibition in test [3] was 2.1%; in test [7], 7.8%; in test [8], 31.8%. Further, the pIC50 is 3.89 in test [1] and 3.57 in test [2].

For the compound `CC(=O)NCC(C)Oc1ccccc1` (racemic), the negative logarithm of the IC50 (pIC50) in test [2] was less than 3.00.

As for `CCCC(=O)NC[C@H](C)Oc1cccc(OC)c1`, the inhibition came to 2.8% in test [3], 1.3% in test [7] and 15.1% in test [8]. For the same compound, the pIC50 was 4.11 in test [1] and less than 3.00 in test [2].

`COc1cccc(O[C@H](C)CNC(=O)C2CC2)c1`: the pIC50 in test [1] was 3.89.

Source of the values: ChEMBL document CHEMBL2331303, “N-(Phenoxyalkyl)amides as MT(1) and MT(2) ligands: antioxidant properties and inhibition of Ca(2+)/CaM-dependent kinase II” (Bioorg Med Chem, 2013).
